Data from US12448392B2, “Spiropiperidine derivatives” (89BIO LTD, priority 2016, dated 2025).
Structures can show the parent of a compound that is named as a salt. Where two headings read alike, the source gives them in different places.

Biological target: T1, recombinant human baculovirus-expressed GST-tagged FASN (Homo sapiens, UniProt P49327)
T1 construct: GST
Assay: biochemical

[1] = 5 nM FASN, 150 μM NADPH, 10 μM acetyl-CoA, 25 μM malonyl-CoA, 90 minutes incubation, read-out: IC50 data for Compounds of Formula I, Activity

T1 sequence (P49327 whole entry): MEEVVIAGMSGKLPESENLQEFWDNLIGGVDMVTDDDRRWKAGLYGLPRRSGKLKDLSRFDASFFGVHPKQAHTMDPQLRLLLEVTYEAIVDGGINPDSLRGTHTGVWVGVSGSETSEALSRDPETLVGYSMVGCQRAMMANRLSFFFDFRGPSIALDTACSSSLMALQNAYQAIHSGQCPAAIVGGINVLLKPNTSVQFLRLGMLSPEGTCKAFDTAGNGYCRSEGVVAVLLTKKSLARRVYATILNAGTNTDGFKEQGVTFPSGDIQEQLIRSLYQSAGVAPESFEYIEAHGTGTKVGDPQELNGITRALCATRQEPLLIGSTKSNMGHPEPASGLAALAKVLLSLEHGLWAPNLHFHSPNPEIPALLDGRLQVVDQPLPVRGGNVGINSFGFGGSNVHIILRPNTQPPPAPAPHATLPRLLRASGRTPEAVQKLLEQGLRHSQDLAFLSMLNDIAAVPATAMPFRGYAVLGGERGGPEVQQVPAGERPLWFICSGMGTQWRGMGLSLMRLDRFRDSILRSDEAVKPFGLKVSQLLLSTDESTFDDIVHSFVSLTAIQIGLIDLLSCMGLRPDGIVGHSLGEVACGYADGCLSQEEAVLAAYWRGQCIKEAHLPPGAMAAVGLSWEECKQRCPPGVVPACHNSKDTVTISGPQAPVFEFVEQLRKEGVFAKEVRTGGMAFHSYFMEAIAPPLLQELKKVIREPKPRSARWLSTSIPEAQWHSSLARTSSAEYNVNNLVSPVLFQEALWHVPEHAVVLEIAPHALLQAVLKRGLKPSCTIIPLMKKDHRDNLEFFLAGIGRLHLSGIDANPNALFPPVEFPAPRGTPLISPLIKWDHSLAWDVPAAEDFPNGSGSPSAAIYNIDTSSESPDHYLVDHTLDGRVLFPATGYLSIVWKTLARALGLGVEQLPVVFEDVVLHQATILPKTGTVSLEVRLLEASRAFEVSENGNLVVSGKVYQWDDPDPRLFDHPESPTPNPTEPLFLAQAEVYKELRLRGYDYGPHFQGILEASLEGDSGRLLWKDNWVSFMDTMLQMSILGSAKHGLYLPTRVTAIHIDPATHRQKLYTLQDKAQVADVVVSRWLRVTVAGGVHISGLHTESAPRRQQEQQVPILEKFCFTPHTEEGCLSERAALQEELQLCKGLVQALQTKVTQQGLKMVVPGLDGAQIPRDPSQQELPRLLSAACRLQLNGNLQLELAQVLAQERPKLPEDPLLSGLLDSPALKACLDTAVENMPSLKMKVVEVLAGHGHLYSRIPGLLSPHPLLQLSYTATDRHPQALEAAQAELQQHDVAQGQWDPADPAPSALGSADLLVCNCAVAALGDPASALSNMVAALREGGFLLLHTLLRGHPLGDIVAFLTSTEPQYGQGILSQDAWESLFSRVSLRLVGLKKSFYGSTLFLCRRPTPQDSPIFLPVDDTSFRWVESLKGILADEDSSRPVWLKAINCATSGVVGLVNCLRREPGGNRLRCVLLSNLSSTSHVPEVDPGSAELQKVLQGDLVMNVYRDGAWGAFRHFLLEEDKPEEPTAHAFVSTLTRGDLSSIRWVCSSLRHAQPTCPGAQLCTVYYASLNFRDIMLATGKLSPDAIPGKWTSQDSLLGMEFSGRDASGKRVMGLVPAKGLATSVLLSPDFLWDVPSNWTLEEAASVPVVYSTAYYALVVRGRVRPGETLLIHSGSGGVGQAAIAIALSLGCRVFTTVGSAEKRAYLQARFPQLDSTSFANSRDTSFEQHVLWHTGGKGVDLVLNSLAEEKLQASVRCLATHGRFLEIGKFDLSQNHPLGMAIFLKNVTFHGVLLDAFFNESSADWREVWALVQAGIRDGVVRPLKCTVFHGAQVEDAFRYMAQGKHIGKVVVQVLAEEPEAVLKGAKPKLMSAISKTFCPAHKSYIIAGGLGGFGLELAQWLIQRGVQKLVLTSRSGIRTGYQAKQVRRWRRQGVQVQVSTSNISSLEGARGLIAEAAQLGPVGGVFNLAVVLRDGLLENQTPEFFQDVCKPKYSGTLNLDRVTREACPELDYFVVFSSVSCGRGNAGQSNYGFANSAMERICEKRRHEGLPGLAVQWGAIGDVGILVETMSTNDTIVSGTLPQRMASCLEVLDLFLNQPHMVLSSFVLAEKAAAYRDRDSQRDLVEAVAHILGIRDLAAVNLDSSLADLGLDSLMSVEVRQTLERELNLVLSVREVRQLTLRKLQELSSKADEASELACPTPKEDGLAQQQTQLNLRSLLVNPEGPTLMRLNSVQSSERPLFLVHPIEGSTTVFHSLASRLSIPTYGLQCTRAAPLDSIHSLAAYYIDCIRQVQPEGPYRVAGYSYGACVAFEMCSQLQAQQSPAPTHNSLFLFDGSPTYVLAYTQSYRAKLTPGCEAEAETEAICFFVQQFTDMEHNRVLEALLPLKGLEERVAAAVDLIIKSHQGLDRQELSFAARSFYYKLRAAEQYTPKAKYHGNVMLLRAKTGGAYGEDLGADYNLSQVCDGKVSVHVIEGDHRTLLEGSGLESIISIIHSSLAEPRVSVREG

In the case of CCONC(=O)N1CCC2(CCc3cc(-c4ccc5ccnn5c4C)ccc3O2)CC1 [Example 115, N-Ethoxy-6-(7-methylpyrazolo[1,5-a]pyridin-6-yl)spiro[chromane-2,4′-piperidine]-1′-carboxamide], the IC50 [1] is reported as 1 to 99 nM.

With Cc1c(-c2ccc3c(c2)CCC2(CCN(C(=O)C4CC4)CC2)O3)cnc2ccccc12 [Example 3, Cyclopropyl-[6-(4-methyl-3-quinolyl)spiro[chromane-2,4′-piperidine]-1′-yl]-methanone HCl] the IC50 [1] was 1 to 99 nM.

In the case of CCOC(=O)N1CCC2(CCc3cc(-c4ccc5cccnc5c4Cl)ccc3O2)CC1 [Example 71, Ethyl 6-(8-chloro-7-quinolyl)spiro[chromane-2,4′-piperidine]-1′-carboxylate], the IC50 [1] is reported as 1000 to 10000 nM.

Work on CCNC(=O)N1CCC2(CC1)OCCc1cc(-c3ccc4cccnc4c3C)ccc1O2 [Example 78, N-Ethyl-7-(8-methyl-7-quinolyl)spiro[4,5-dihydro-1,3-benzodioxepine-2,4′-piperidine]-1′-carboxamide] yielded an IC50 of 100 to 999 nM.

Work on CONC(=O)N1CCC2(CC1)OCc1cc(-c3ccc4cccnc4c3Cl)ccc1O2 [Example 134, 6-(8-Chloro-7-quinolyl)-N-methoxy-spiro[4H-1,3-benzodioxine-2,4′-piperidine]-1′-carboxamide] yielded an IC50 of 1 to 99 nM.

Molecule CCC(=O)N1CCC2(CC1)OCc1cc(-c3cnc4ccccc4c3C)ccc1O2 [Example 52, 1-[6-(4-Methyl-3-quinolyl)spiro[4H-1,3-benzodioxine-2,4′-piperidine]-1′-yl]propan-1-one] has an IC50 of 1 to 99 nM.

In the case of Cc1nccc2cc(-c3ccc4c(c3)COC3(CCN(C(=O)C5CC5)CC3)O4)ccc12 [Example 22, Cyclopropyl-[6-(1-methyl-6-isoquinolyl)spiro[4H-1,3-benzodioxine-2,4′-piperidine]-1′-yl]methanone], the IC50 is reported as 1 to 99 nM.

With CONC(=O)N1CCC2(CC1)OCc1cc(-c3ccc4c(C)nccc4c3)cc(OC)c1O2 [Example 248] the IC50 was 1000 to 10000 nM.

In the case of NC(=O)N1CCC2(CCc3cc(-c4ccc5[nH]ccc5c4)ccc3O2)CC1 [Example 76, 6-(1H-Indol-5-yl)spiro[chromane-2,4′-piperidine]-1′-carboxamide], the IC50 [1] is reported as 100 to 999 nM.

Cc1cc2cc(-c3ccc4c(c3)COC3(CCN(C(N)=O)CC3)O4)ccc2cn1 [Example 201, 6-(3-Methyl-6-isoquinolyl)spiro[4H-1,3-benzodioxine-2,4′-piperidine]-1′-carboxamide] gave an IC50 of 1000 to 10000 nM.

In the case of NC(=O)N1CCC2(CCc3cc(-c4ccc5ncsc5c4)ccc3O2)CC1 [Example 74, 6-(1,3-benzothiazol-6-yl)spiro[chromane-2,4′-piperidine]-1′-carboxamide], the IC50 [1] is reported as 1000 to 10000 nM.

In the case of O=C(C1CC1)N1CCC2(CC1)OCc1cc(-c3ccc4cccnc4c3Cl)ccc1O2 [Example 58, [6-(8-Chloro-7-quinolyl)spiro[4H-1,3-benzodioxine-2,4′-piperidine]-1′-yl]-cyclopropyl-methanone], the IC50 is reported as 1 to 99 nM.

Work on Cc1c(-c2ccc3c(c2)CCC2(CCN(C(=O)NC(C)C)CC2)O3)ccc2cccnc12 [Example 98, N-Isopropyl-6-(8-methyl-7-quinolyl)spiro[chromane-2,4′-piperidine]-1′-carboxamide] yielded an IC50 [1] of 100 to 999 nM.

For CCONC(=O)N1CCC2(CC1)OCCc1cc(-c3ccc4cccnc4c3C)ccc1O2 [Example 79, N-Ethoxy-7-(8-methyl-7-quinolyl)spiro[4,5-dihydro-1,3-benzodioxepine-2,4′-piperidine]-1′-carboxamide], the IC50 was 1 to 99 nM.

Cc1nccc2cc(-c3ccc4c(c3)CCC3(CCN(C(=O)NO)CC3)O4)ccc12 [Example 189, 6-(1-Methyl-6-isoquinolyl)spiro[chromane-2,4′-piperidine]-1′-carbohydroxamic acid] gave an IC50 [1] of 1000 to 10000 nM.

With Cc1c(-c2ccc3c(c2)CCC2(CCN(C(=O)CO)CC2)O3)ccc2cccnc12 [Example 61, 2-Hydroxy-1-[6-(8-methyl-7-quinolyl)spiro[chromane-2,4′-piperidine]-1′-yl]-ethanone] the IC50 [1] was 100 to 999 nM.

CONC(=O)N1CCC2(CC1)OCc1cc(-c3cc4ccccc4cn3)ccc1O2 [Example 147, 6-(3-Isoquinolyl)-N-methoxy-spiro[4H-1,3-benzodioxine-2,4′-piperidine]-1′-carboxamide] gave an IC50 of 1 to 99 nM.

With O=C(C1CC1)N1CCC2(CC1)OCc1cc(-c3ccncc3)ccc1O2 [Example 230, Cyclopropyl-[6-(4-pyridyl)spiro[4H-1,3-benzodioxine-2,4′-piperidine]-1′-yl]-methanone, HCl] the IC50 was 1000 to 10000 nM.

With CCOC(=O)N1CCC2(CC1)OCc1cc(-c3ccc4cccnc4c3OC)ccc1O2 [Example 176, Ethyl 6-(8-methoxy-7-quinolyl)spiro[4H-1,3-benzodioxine-2,4′-piperidine]-1′-carboxylate] the IC50 was 100 to 999 nM.

COc1c(-c2ccc3c(c2)COC2(CCN(C(=O)C4CC4)CC2)O3)ccc2cccnc12 [Example 49, Cyclopropyl-[6-(8-methoxy-7-quinolyl)spiro[4H-1,3-benzodioxine-2,4′-piperidine]-1′-yl]methanone] showed an IC50 of 1 to 99 nM.

In the case of CC(=O)OCC(=O)N1CCC2(CCc3cc(-c4ccc5cccnc5c4Cl)ccc3O2)CC1 [Example 64, [2-[6-(8-chloro-7-quinolyl)spiro[chromane-2,4′-piperidine]-1′-yl]-2-oxo-ethyl]acetate], the IC50 [1] is reported as 100 to 999 nM.

Work on CCCONC(=O)N1CCC2(CCc3cc(-c4ccc5cccnc5c4C)ccc3O2)CC1 [Example 102, 6-(8-Methyl-7-quinolyl)-N-propoxy-spiro[chromane-2,4′-piperidine]-1′-carboxamide] yielded an IC50 [1] of 1 to 99 nM.

In the case of NC(=O)N1CCC2(CCc3cc(-c4ccc5occc5c4)ccc3O2)CC1 [Example 73, 6-(Benzofuran-5-yl)spiro[chromane-2,4′-piperidine]-1′-carboxamide], the IC50 [1] is reported as 1000 to 10000 nM.

In the case of Cc1c(-c2ccc3c(c2)CCC2(CCN(C(N)=O)CC2)O3)ccc2cccnc12 [Example 106, 6-(8-Methyl-7-quinolyl)spiro[chromane-2,4′-piperidine]-1′-carboxamide], the IC50 [1] is reported as 1 to 99 nM.

CCNC(=O)N1CCC2(CC1)Cc1cc(-c3ccc4cccnc4c3C)ccc1O2 [Example 156, N-Ethyl-5-(8-methyl-7-quinolyl)spiro[3H-benzofuran-2,4′-piperidine]-1′-carboxamide] gave an IC50 [1] of 1000 to 10000 nM.

CONC(=O)N1CCC2(CC1)Cc1cc(-c3cnc4ccccc4c3C)ccc1O2 [Example 157, N-Methoxy-5-(4-methyl-3-quinolyl)spiro[3H-benzofuran-2,4′-piperidine]-1′-carboxamide] showed an IC50 [1] of 1000 to 10000 nM.

Cc1cc2cc(-c3ccc4c(c3)CCC3(CCN(C(N)=O)CC3)O4)ccc2cn1 [Example 206, 6-(3-Methyl-6-isoquinolyl)spiro[chromane-2,4′-piperidine]-1′-carboxamide] was tested, and the IC50 [1] was 1000 to 10000 nM.

In the case of CCONC(=O)N1CCC2(CCc3cc(-c4cc5ccccc5cn4)ccc3O2)CC1 [Example 149, N-Ethoxy-6-(3-isoquinolyl)spiro[chromane-2,4′-piperidine]-1′-carboxamide], the IC50 [1] is reported as 1 to 99 nM.

CCC(=O)N1CCC2(CC1)OCc1cc(-c3ccc4cccnc4c3C)ccc1O2 [Example 53, 1-[6-(8-Methyl-7-quinolyl)spiro[4H-1,3-benzodioxine-2,4′-piperidine]-1′-yl]propan-1-one] showed an IC50 of 1 to 99 nM.

In the case of O=C([C@H]1CCCO1)N1CCC2(CCc3cc(-c4cccnc4)ccc3O2)CC1 [Example 223, [6-(3-Pyridyl)spiro[chromane-2,4′-piperidine]-1′-yl]-[(2R)-tetrahydrofuran-2-yl]methanone, HCl], the IC50 [1] is reported as 100 to 999 nM.
